Columns and labels:
[1] = system: iOL (SON-transduced human iPSC-derived NPC); test: Compound screen: differentiation-promoting effect of drug candidates on iOL (O4 and MBP immunocytochemistry); format: cell-based; details: for toxic influence on iOL: at higher concentrations (tested 0.5, 1, 5 μM); for formation of MBP+ mature iOL relative to T3-treated cultures: drug candidate at 0.5, 1, 5 μM; for effect on formation of O4+ iOL compared to DMSO control: T3 60 ng/ml or drug candidate at 0.5, 1, 5 μM
Experimental: For immunocytochemical analysis, an equal volume of 4% PFA in PBS was added to the culture medium and cells were pre-fixed for 10 min at room temperature (RT). After removing the supernatant, cells were fixed for an additional 15 minutes with 4% PFA in PBS and washed three times with PBS. Fixed cells were permeabilized by adding 0.2% Triton X-100 (Sigma) in PBS for 15 min at RT (This step was omitted for NG2, O4 and GalC staining). Subsequently, blocking was performed by incubating the cells with 5% normal goat serum (NGS; Gibco) and 5% fetal calf serum (FCS; Gibco) for 30 min at RT. Primary antibodies were applied overnight at 4° C. in blocking solution. Following three washing steps with PBS, cells were incubated with Alexa Fluor conjugated secondary antibodies diluted in PBS for 1 h at RT. Cells were subsequently washed three times with PBS, including a Hoechst counterstaining for nuclei in the second washing step. Cells on glass coverslips were mounted in Dako Fluorescent Mounting Medium (Dako) and visualized on a Zeiss LSM700 confocal microscope. Cells on plastic cell culture plates were visualized on a Leica DM16000 B inverted microscope.
To assess the sensitivity of iOL towards differentiation promoting drugs, iPSC-derived NPC were transduced with concentrated SON virus particle as described above. Viral medium was removed after 24 h and replaced with GIM lacking T3. The end of the virus infection period was termed day 0. At day 5 of differentiation, cells were detached, singularized and reseeded at densities of 5×10^4 cells in matrigel-coated 48-well plates or 1.5×10^5 cells in 24-well plates containing matrigel-coated glass coverslips. Cells were allowed to recover in minimum DM consisting of DMEM-F12 with 1:200 N2 supplement, 1:100 B27 supplement lacking vitamin A, 1% penicillin/streptomycin/glutamine, 200 μM AA and 100 μM dbcAMP. After 24 h cells were treated with vehicle alone (0.01% (v/v) DMSO) as a negative control, 60 ng/ml T3 as a positive control, or with a drug candidate dissolved in DMSO at three different concentrations (0.5 μM, 1 μM, 5 μM) in minimum DM. The drug candidates comprised miconazole (Sigma), clobetasol (TCI), benztropine (Sigma), indometacin (Sigma), clemastine (Sigma) and oxybutynin (Sigma). Medium was changed every other day and cells were fixed in 4% PFA for immunocytochemical analysis after 21 days of treatment. Investigators were blinded for immunocytochemical analysis.
Identification of drugs inducing remyelination via promotion of oligodendroglial differentiation presents a promising approach for the treatment of demyelinating disorders like MS. Thus, we assessed whether iOL can be utilized to identify compounds promoting oligodendroglial differentiation. We selected six drug candidates (miconazole, clobetasol, benztropine, indometacin, clemastine and oxybutynin) which have been previously described to promote differentiation or myelination of rodent OL^1, 18-20. iOL cultures were treated with either vehicle (0.01% (v/v) DMSO) as a negative control, thyroid hormone (T3) as a positive control, or the drug candidate dissolved in DMSO at three different concentrations (0.5 μM, 1 μM, 5 μM) (FIG. 7a-d).

[2] = system: MAPT-OL (iOL carrying the N279K MAPT mutation); test: Stress-induced cell death: rotenone on O4+ iOL, cleaved CASPASE 3 / O4 double-staining; format: cell-based, human; details: rotenone 100, 250 and 500 nM, 48 h; all results combined, control cultures set to 100%
Experimental: To examine the effect of rotenone (Sigma) on the viability of iOL derived from either N279K MAPT or Ctrl cells O4^+ iOL were purified using the MACS technology after 21 days of differentiation and replated at a density of 8×10^3 cells per well into matrigel-coated 96-well plates. After another 6 days in DM, cells were treated with either vehicle (0.01% (v/v) DMSO) or rotenone dissolved in DMSO at three different concentrations (100 nM, 250 nM, 500 nM). […] Investigators were blinded for immunocytochemical analysis.
After 28 days of differentiation, O4^+ iOL harboring the N279K mutation (MAPT-OL) were morphologically indistinguishable from their gene corrected control cell lines (MAPT-GC-OL) (FIG. 7e) and featured similar differentiation efficiencies among all cell lines included (FIG. 7f). We next set out to investigate whether the N279K MAPT mutation induces an altered expression of TAU isoforms in iOL. We purified O4^+ iOL using FACS before RNA sample preparation. […] FTDP-17 patients display widespread neurodegeneration due to increased cellular vulnerability. […]

In the case of `N[C@@H](Cc1cc(I)c(Oc2ccc(O)c(I)c2)c(I)c1)C(=O)O` [T3, Triiodo-L-Thyronine], the “O4+ cells” value ([1]; 60 ng/ml T3 (positive control), minimum DM, 21 days, DMSO control 14.01±2.89%) is reported as 28.25±3.47%.
With `CN1[C@@H]2CC[C@H]1C[C@@H](OC(c1ccccc1)c1ccccc1)C2` [benztropine] the “toxic influence on iOL” value ([1]; 21 days) was “toxic influence” and the “formation of MBP+ mature iOL relative to T3-treated cultures” value ([1]; minimum DM, 21 days) was “comparable to T3-treated cultures”.
`CN1CCC[C@@H]1CCO[C@](C)(c1ccccc1)c1ccc(Cl)cc1` [clemastine] was tested, and the “effect on formation of O4+ iOL compared to DMSO control” value ([1]; minimum DM, 21 days) was “failed to promote the formation of O4^+ iOL” and the “toxic influence on iOL” value ([1]; 21 days) was “toxic influence”.
In the case of `C[C@H]1C[C@H]2[C@@H]3CCC4=CC(=O)C=C[C@]4(C)[C@@]3(F)[C@@H](O)C[C@]2(C)[C@@]1(O)C(=O)CCl` [clobetasol], the “formation of MBP+ mature iOL relative to T3-treated cultures” value ([1]; minimum DM, 21 days) is reported as “comparable to T3-treated cultures”.
In the case of `Clc1ccc(COC(Cn2ccnc2)c2ccc(Cl)cc2Cl)c(Cl)c1` (stereo not drawn) [miconazole], the “increase of MBP+ cells compared to DMSO control cultures” value ([1]; 1 μM, minimum DM, 21 days) is reported as “almost tenfold increase”, the “toxic influence on iOL” value ([1]; 21 days) is reported as “toxic influence” and the “toxic effect on iOL” value ([1]; fivefold higher concentration than the effective 1 μM) is reported as “toxic effect”. The “differentiation-promoting effect on iOL, ranked among the tested compounds” value ([1]; six drug candidates compared) was “strongest effect on iOL”.
For `CCN(CC)CC#CCOC(=O)C(O)(c1ccccc1)C1CCCCC1` (stereo not drawn) [oxybutynin], the “effect on formation of O4+ iOL compared to DMSO control” value ([1]; minimum DM, 21 days) was “failed to promote the formation of O4^+ iOL”.
In the case of `C=C(C)[C@H]1Cc2c(ccc3c2O[C@@H]2COc4cc(OC)c(OC)cc4[C@@H]2C3=O)O1` [rotenone], the “average increase of cell death (cleaved CASPASE-3+ iOL) in MAPT-OL” value [2] is reported as 48.9±18.7%.
